Test results as given in patent US6482412B1, “Polypeptide having human HIV inhibitory activity, a gene encoding the polypeptide, a method to produce the polypeptide” (Gakkou Houjin Kitasato Gakuen, priority 1999, dated 2002).
≈ marks a conversion by molar mass, not a printed value.

Tests used:
Type in all cases: cell-based
[1] = Cytotoxicity on uninfected MT-4 cells, MTT method; settings: human, five days
Method: (§1) Anti-HIV activity was measured from suppression of cytopathic effect caused by HIV infection. The HIV infected MT-4 cell (2.5×10^4 cells/well, degree of multiple infection: 0.01) was added to 96 well titer plate immediately after infection. At the same time, K97-0003 peptide of various concentration was also added to the plate. In order to examine cytopathic effect of K97-0003 peptide on MT-4 cell, cells uninfected by HIV was incubated with K97-0003 peptide of various concentrations in the same manner. After five days of incubation at 37° C. in a CO2 incubator, the number of cell survived was measured by MTT method.
(2) CC50: It is the concentration of K97-0003 peptide that causes cytotoxicity to 50% of cells, and is the parameter of cytotoxic effect of the peptide.

[2] = test system: syncytium formation by fusion of HeLa/CD4/LTR cells and HeLa135/env (T-tropic HIV-1)/Tat cells; test: cells; settings: Human immunodeficiency virus 1, HeLa, read-out: IC50 of syncytium formation ability
Method: 50 μl of HeLa/CD4 /LTR cell suspension prepared to 1.6×10^5 cells/ml was inoculated into every each well of 96 well plate (IWAKI MICROPLATE 96well), and 10 μl of the sample, diluted in a series of concentration with phosphate buffer physiological saline, was added to every each well. Then, 50 μl of HeLa135/env(envelope glycoprotein: originated from T-tropic HIV-1)/Tat cell suspension prepared to 1.6×10^5 cells/ml was dispensed to every well, and incubated in an incubator at 37° C. under 5% CO2 air current for 24 hours. After removal of the culture fluid from each well, 20 μl of cell lysis solution was added to every each well, and the plate was left at the room temperature for about 10 minutes.
Continuously, 100 μl of chromogenic substrate solution (Z-buffer: 80 μl+4 mg/ml o-nitrophenyl-β-D-glactopyranoside:20 μl) was added to each well, and reacted in the incubator at 37° C. […] After 80 minutes, 25 μl of reaction stop solution (2M Na2CO3) was added to it, and the absorbance at 405 nm was measured using colorimeter (Organ ON SystemMicrowell System Reader 510). Syncytium formation ability was calculated from the obtained absorbance by the following formula.
Syncytium formation ability=the absorbance of the well with sample addition/absorbance of control×100

HIV infected MT-4 cell = test: Anti-HIV activity by suppression of cytopathic effect, MTT method; settings: Human immunodeficiency virus 1, MT4, 120 h, read-out: BC50
Method: as §1
(1) EC50: It is the concentration of K97-0003 peptide which inhibits 50% of the cytotoxicity by HIV infection, and is the parameter of anti-HIV activity of the peptide.

CN1C(=O)[C@@H](c2cc(Cl)c(O)c(Cl)c2)NC(=O)[C@@H]2NC(=O)[C@@H](c3cc(Cl)c(O)c(Cl)c3)NC(=O)[C@H](NC(=O)C(=O)c3cc(Cl)c(O)c(Cl)c3)Cc3c[nH]c4c(cccc34)-c3cc2cc(c3O)Oc2ccc(cc2)C[C@H]1C(=O)N[C@@H](C(=O)O)c1ccc(O)cc1 [Chloropeptine, chloropeptin, reference compound]
CC50 at 5 days [1]: > 600000 nM | IC50 [2]: 1.7 µg/mL (≈ 1.28 µM) | EC50 (HIV infected MT-4 cell): 1600 nM
